“And” between values parts separate entries of the source, which are not always exact repeats. Equal values may be shown once.
Test system: MPNST multicellular tumor spheroids, viability % test/control
Assay: Anticancer human tumor MPNST cell line growth inhibition;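 also: spheroids exposed to agents for seven days after three days of growth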;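 as to viability, T/C: luminescence signal used as surrogate for viable cell amount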
Details: for viability, T/C: stronger effect = lower value; active = viability on the fitted dose curve at most 10% of control; inactive = the rest
In short: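 Single agents and combinations were tested on spheroids built from tumor cells plus HUVEC and hMSC, at half-log dilutions starting at or near clinical Cmax, else 10 microM; final DMSO 0.25% (v/v).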

[1] = curve of first compound, second compound 0.003 µM
[2] = curve of first compound, second compound 0.00949 µM
[3] = curve of first compound, second compound 0.03 µM
[4] = curve of first compound, second compound 0.0949 µM
[5] = curve of first compound, second compound 0.3 µM
[6] = second compound 0.003 µM, first compound 0.0316 µM
[7] = second compound 0.003 µM, first compound 0.1 µM
[8] = second compound 0.003 µM, first compound 0.316 µM
[9] = second compound 0.003 µM, first compound 1 µM
[10] = second compound 0.003 µM, first compound 3.16 µM
[11] = second compound 0.003 µM, first compound 10 µM
[12] = second compound 0.00949 µM, first compound 0.0316 µM
[13] = second compound 0.00949 µM, first compound 0.1 µM
[14] = second compound 0.00949 µM, first compound 0.316 µM
[15] = second compound 0.00949 µM, first compound 1 µM
[16] = second compound 0.00949 µM, first compound 3.16 µM
[17] = second compound 0.00949 µM, first compound 10 µM
[18] = second compound 0.03 µM, first compound 0.0316 µM
[19] = second compound 0.03 µM, first compound 0.1 µM
[20] = second compound 0.03 µM, first compound 0.316 µM
[21] = second compound 0.03 µM, first compound 1 µM
[22] = second compound 0.03 µM, first compound 3.16 µM
[23] = second compound 0.03 µM, first compound 10 µM
[24] = second compound 0.0949 µM, first compound 0.0316 µM
[25] = second compound 0.0949 µM, first compound 0.1 µM
[26] = second compound 0.0949 µM, first compound 0.316 µM
[27] = second compound 0.0949 µM, first compound 1 µM
[28] = second compound 0.0949 µM, first compound 3.16 µM
[29] = second compound 0.0949 µM, first compound 10 µM
[30] = second compound 0.3 µM, first compound 0.0316 µM
[31] = second compound 0.3 µM, first compound 0.1 µM
[32] = second compound 0.3 µM, first compound 0.316 µM
[33] = second compound 0.3 µM, first compound 1 µM
[34] = second compound 0.3 µM, first compound 3.16 µM
[35] = second compound 0.3 µM, first compound 10 µM

COc1cc(C)[nH]c(=O)c1CN1CCc2c(Cl)cc(C(OC)C3COC3)c(Cl)c2C1=O (configuration not stated) + CC[C@@]1(O)C(=O)OCc2c1cc1n(c2=O)Cc2cc3c(CN(C)C)c(O)ccc3nc2-1
> 10 µM: IC50 [1] | IC50 [2]
< 0.0316 µM: IC50 [3] | IC50 [4] | IC50 [5]
inactive: viability, T/C [6] 92.6% | viability, T/C [7] 95.7% | viability, T/C [8] 91.3% | viability, T/C [9] 103% | viability, T/C [10] 93.6% | viability, T/C [11] 95.5% | viability, T/C [12] 96.6% | viability, T/C [13] 88.5% | viability, T/C [14] 96.4% | viability, T/C [15] 78% | viability, T/C [16] 77.9% | viability, T/C [17] 86.3% | viability, T/C [18] 46.4% | viability, T/C [19] 49.5% | viability, T/C [20] 51.5% | viability, T/C [21] 49.2% | viability, T/C [22] 54.2% | viability, T/C [23] 51.6% | viability, T/C [24] 48.5% | viability, T/C [25] 41.7% | viability, T/C [26] 43.7% | viability, T/C [27] 47.7% | viability, T/C [28] 45.7% | viability, T/C [29] 46.7% | viability, T/C [30] 37% | viability, T/C [31] 39.2% | viability, T/C [32] 39.2% | viability, T/C [33] 37.3% | viability, T/C [34] 37.7% | viability, T/C [35] 39.5%

CC1COCCN1c1cc(-c2ccnn2C)c2ccnc(-c3ccn[nH]3)c2n1 (configuration not stated) + CC[C@@]1(O)C(=O)OCc2c1cc1n(c2=O)Cc2cc3c(CN(C)C)c(O)ccc3nc2-1
0.0318 µM: IC50 [2]
0.0562 µM: IC50 [1]
< 0.0316 µM: IC50 [3] | IC50 [4] | IC50 [5]
inactive: viability, T/C [6] 51% | viability, T/C [7] 49.7% | viability, T/C [8] 39.3% | viability, T/C [9] 34.1% | viability, T/C [10] 25.9% | viability, T/C [11] 26.9% | viability, T/C [12] 50.3% | viability, T/C [13] 44% | viability, T/C [14] 42.2% | viability, T/C [15] 34.6% | viability, T/C [16] 26.5% | viability, T/C [17] 23.8% | viability, T/C [18] 48.7% | viability, T/C [19] 44.5% | viability, T/C [20] 48.4% | viability, T/C [21] 34.6% | viability, T/C [22] 26.1% | viability, T/C [23] 23.5% | viability, T/C [24] 45.8% | viability, T/C [25] 43.8% | viability, T/C [26] 41% | viability, T/C [27] 28.3% | viability, T/C [28] 26.9% | viability, T/C [29] 21.8% | viability, T/C [30] 41.1% | viability, T/C [31] 39.9% | viability, T/C [32] 34% | viability, T/C [33] 28.1% | viability, T/C [34] 21.2% | viability, T/C [35] 17.5%

Cc1sc2c(c1C)C(c1ccc(Cl)cc1)=NC(CC(=O)Nc1ccc(O)cc1)c1nnc(C)n1-2 (configuration not stated) + Cn1nnc2c(C(N)=O)ncn2c1=O
0.678 µM: IC50 (curve of first compound, second compound 100 µM)
1.79 µM: IC50 (curve of first compound, second compound 10 µM)
0.813 µM: IC50 (curve of first compound, second compound 3.16 µM)
1.44 µM: IC50 (curve of first compound, second compound 1 µM)
inactive: viability, T/C (second compound 1 µM, first compound 0.00949 µM) 123% | viability, T/C (second compound 1 µM, first compound 0.03 µM) 97.7% | viability, T/C (second compound 1 µM, first compound 0.0949 µM) 78.7% | viability, T/C (second compound 1 µM, first compound 0.3 µM) 60.5% | viability, T/C (second compound 1 µM, first compound 0.949 µM) 51.3% | viability, T/C (second compound 1 µM, first compound 3 µM) 47.3% | viability, T/C (second compound 3.16 µM, first compound 0.00949 µM) 96.7% | viability, T/C (second compound 3.16 µM, first compound 0.03 µM) 125% | viability, T/C (second compound 3.16 µM, first compound 0.0949 µM) 92.4% | viability, T/C (second compound 3.16 µM, first compound 0.3 µM) 60.4% | viability, T/C (second compound 3.16 µM, first compound 0.949 µM) 49.7% | viability, T/C (second compound 3.16 µM, first compound 3 µM) 45.8% | viability, T/C (second compound 10 µM, first compound 0.00949 µM) 102% | viability, T/C (second compound 10 µM, first compound 0.03 µM) 123% | viability, T/C (second compound 10 µM, first compound 0.0949 µM) 93.8% | viability, T/C (second compound 10 µM, first compound 0.3 µM) 62.7% | viability, T/C (second compound 10 µM, first compound 0.949 µM) 50.7% | viability, T/C (second compound 10 µM, first compound 3 µM) 48.5% | viability, T/C (second compound 31.6 µM, first compound 0.00949 µM) 95.6% | viability, T/C (second compound 31.6 µM, first compound 0.03 µM) 108% | viability, T/C (second compound 31.6 µM, first compound 0.0949 µM) 91.7% | viability, T/C (second compound 31.6 µM, first compound 0.3 µM) 60% | viability, T/C (second compound 31.6 µM, first compound 0.949 µM) 50% | viability, T/C (second compound 31.6 µM, first compound 3 µM) 51.4% | viability, T/C (second compound 100 µM, first compound 0.00949 µM) 91.5% | viability, T/C (second compound 100 µM, first compound 0.03 µM) 87% | viability, T/C (second compound 100 µM, first compound 0.0949 µM) 83.2% | viability, T/C (second compound 100 µM, first compound 0.3 µM) 58.6% | viability, T/C (second compound 100 µM, first compound 0.949 µM) 47.3% | viability, T/C (second compound 100 µM, first compound 3 µM) 43.7%
> 3 µM: IC50 (curve of first compound, second compound 31.6 µM)

[2H]c1nc(C)nc([2H])c1-c1cc(NC[C@@H](C)c2cccc3c(C(=O)NC)ccnc23)ncn1
inactive: viability, T/C (compound 0.0316 µM) 96.1% and 83.1% and 86.7% | viability, T/C (compound 0.1 µM) 77.8% and 109% and 75.6% | viability, T/C (compound 0.316 µM) 82.6% and 102% and 90.4% | viability, T/C (compound 1 µM) 101% and 103% and 119% | viability, T/C (compound 3.16 µM) 110% and 104% and 71.3% | viability, T/C (compound 10 µM) 101% and 100% and 67.4%
> 10 µM: IC50 (curve of compound)

Cc1sc2c(c1C)C(c1ccc(Cl)cc1)=NC(CC(=O)Nc1ccc(O)cc1)c1nnc(C)n1-2 (configuration not stated) + COc1cc2c(cc1O)CCNC21CSC2c3c(OC(C)=O)c(C)c4c(c3C(COC1=O)N1C(O)C3Cc5cc(C)c(OC)c(O)c5C(C21)N3C)OCO4
0.0584 µM: IC50 (curve of first compound, second compound 0.0003 µM)
0.155 µM: IC50 (curve of first compound, second compound 94.9 pM)
inactive: viability, T/C (second compound 30 pM, first compound 0.00949 µM) 86.9% | viability, T/C (second compound 30 pM, first compound 0.03 µM) 71% | viability, T/C (second compound 30 pM, first compound 0.0949 µM) 85.7% | viability, T/C (second compound 30 pM, first compound 0.3 µM) 38.2% | viability, T/C (second compound 30 pM, first compound 0.949 µM) 26.3% | viability, T/C (second compound 30 pM, first compound 3 µM) 24% | viability, T/C (second compound 94.9 pM, first compound 0.00949 µM) 62.5% | viability, T/C (second compound 94.9 pM, first compound 0.03 µM) 70.3% | viability, T/C (second compound 94.9 pM, first compound 0.0949 µM) 56.6% | viability, T/C (second compound 94.9 pM, first compound 0.3 µM) 39.3% | viability, T/C (second compound 94.9 pM, first compound 0.949 µM) 27.9% | viability, T/C (second compound 94.9 pM, first compound 3 µM) 23.9% | viability, T/C (second compound 0.0003 µM, first compound 0.00949 µM) 59.6% | viability, T/C (second compound 0.0003 µM, first compound 0.03 µM) 53.3% | viability, T/C (second compound 0.0003 µM, first compound 0.0949 µM) 47.5% | viability, T/C (second compound 0.0003 µM, first compound 0.3 µM) 36.3% | viability, T/C (second compound 0.0003 µM, first compound 0.949 µM) 26.6% | viability, T/C (second compound 0.0003 µM, first compound 3 µM) 22.4% | viability, T/C (second compound 0.000949 µM, first compound 0.00949 µM) 31% | viability, T/C (second compound 0.000949 µM, first compound 0.03 µM) 29.7% | viability, T/C (second compound 0.000949 µM, first compound 0.0949 µM) 27.4% | viability, T/C (second compound 0.000949 µM, first compound 0.3 µM) 21.6% | viability, T/C (second compound 0.000949 µM, first compound 0.949 µM) 12.7% | viability, T/C (second compound 0.000949 µM, first compound 3 µM) 14.8%
active: viability, T/C (second compound 0.003 µM, first compound 0.00949 µM) 6.19% | viability, T/C (second compound 0.003 µM, first compound 0.03 µM) 4.21% | viability, T/C (second compound 0.003 µM, first compound 0.0949 µM) 4.96% | viability, T/C (second compound 0.003 µM, first compound 0.3 µM) 1.41% | viability, T/C (second compound 0.003 µM, first compound 0.949 µM) 2.26% | viability, T/C (second compound 0.003 µM, first compound 3 µM) 1.94%
0.219 µM: IC50 (curve of first compound, second compound 30 pM)
< 0.00949 µM: IC50 (curve of first compound, second compound 0.000949 µM) | IC50 [1]
